{"source": "patent US20220304308A1", "about": "“METHOD FOR CONTROLLING GROWTH OF GLYPHOSATE-TOLERANT PLANTS” (JIANGSU ROTAM CHEMISTRY CO., LTD., priority 2019, published 2022)", "assay_type_in_all_cases": "in vivo", "key": {"soybean plants [1]": {"tested_on": "soybean plants", "assay": "Phytotoxicity tests on soybean sown 20 days after treatment under conditions X1-X4 (Example 4)", "conditions": "Nicosulfuron 75 g/ha, Glyphosate 0 g/ha, 150 L/ha, evaluated 7 days after emergence, EWRC scale 1-9", "method": "Sourgrass plants were planted and kept at the conditions summarised in Table 7 below throughout the experiment:\nThe WG formulations were dispersed in water and applied to the locus of the sourgrass plants at a volumetric rate of 150 L/ha.\nSoybean seeds were sown in a greenhouse in the treated plots 20 days after the treatment with the herbicide(s). The period of 20 days was determined by applying Formula I above to the parameters set out above.\n(§1) In order to quantify the damage caused to the soybean plants, visual analysis of phytotoxicity was conducted and recorded based on the scale proposed by the European Weed Research Council. The extent of damage on this scale varies from 1 to 9, where “1” represents absence of symptoms and “9” represents total plant destruction.\nEvaluation was conducted 7 days after emergence of the soybean plants."}, "soybean plants [2]": {"tested_on": "soybean plants", "assay": "Phytotoxicity test on soybean sown in treated plots at different times after treatment (Example 3)", "set-up": "key: EWRC scale 1-9: 1 = no symptoms, 9 = total plant destruction", "method": "Sourgrass plants were planted and kept at about 24° C. and 85% humidity throughout the experiment.\nThe sourgrass plants were treated with water dispersible granule (WG) formulations of nicosulfuron and/or glyphosate as summarised in Table 5.\nSoybean seeds were sown separately in each of the treated plots 1 day, 7 days, 14 days, 20 days and 30 days after the treatment.\nas §1\nEvaluation was conducted 7 days, 14 days, 21 days and 28 days after emergence of the soybean plants."}, "[3]": {"tested_on": "glyphosate-resistant sourgrass (Digitaria insularis)", "assay": "Post-emergence treatment test on glyphosate-resistant sourgrass, nicosulfuron WG formulations (Example 1)", "conditions": "conclusion from Table 2", "method": "Post-emergence treatment tests were conducted on glyphosate-resistant sourgrass (Digitaria insularis). Sourgrass plants were planted and kept in a greenhouse at about 24° C. and 85% humidity throughout the experiment.\nThe WG formulations were each diluted with water prior to treatment of the sourgrass plants.\nThe herbicidal efficiency of each formulation as determined by visual observation at each of 7, 14 and 20 days after the treatment.\nThe the efficacy of each formulation is represented by a comparison between the treated plants and the Control plants. A score of 0% represents no herbicidal activity. A score of 100% represents complete herbicidal activity (plants completely killed)."}}}
{"smiles": "COc1cc(OC)nc(NC(=O)NS(=O)(=O)c2ncccc2C(=O)N(C)C)n1", "note": "[Nicosulfuron, 2-(4,6-dimethoxypyrimidin-2-ylcarbamoylsulfamoyl)-N,N-dimethylnicotinamide]", "values": [{"measurement": "Phytotoxicity Level", "setting": "soybean plants [1]; conditions X1 (17 ° C., 95% humidity, 8.5 hr sunlight per day), soybean sown 20 days after treatment", "value": 1}, {"measurement": "Phytotoxicity Level", "setting": "soybean plants [1]; conditions X2 (24 ° C., 85% humidity, 9 hr sunlight per day), sown 20 days after treatment", "value": 1}, {"measurement": "Phytotoxicity Level", "setting": "soybean plants [1]; conditions X3 (32 ° C., 65% humidity, 9.5 hr sunlight per day), sown 20 days after treatment", "value": 1}, {"measurement": "Phytotoxicity Level", "setting": "soybean plants [1]; conditions X4 (37 ° C., 30% humidity, 10 hr sunlight per day), sown 20 days after treatment", "value": 1}, {"measurement": "Phytotoxicity Level", "setting": "soybean plants [2]; Nicosulfuron 50 g/ha, Glyphosate 0 g/ha (A3 of Table 5), soybean sown 1 day after treatment, EWRC scale 1 (absence of symptoms) to 9 (total plant destruction)", "value": 4}, {"measurement": "Phytotoxicity Level", "setting": "soybean plants [2]; Nicosulfuron 50 g/ha, Glyphosate 0 g/ha (A3 of Table 5), soybean sown 7 days after treatment, EWRC scale 1-9", "value": 3}, {"measurement": "Phytotoxicity Level", "setting": "soybean plants [2]; Nicosulfuron 50 g/ha, Glyphosate 0 g/ha (A3 of Table 5), soybean sown 14 days after treatment, EWRC scale 1-9", "value": 2}, {"measurement": "Phytotoxicity Level", "setting": "soybean plants [2]; Nicosulfuron 50 g/ha, Glyphosate 0 g/ha (A3 of Table 5), soybean sown 20 days after treatment, EWRC scale 1-9", "value": 1}, {"measurement": "Phytotoxicity Level", "setting": "soybean plants [2]; Nicosulfuron 50 g/ha, Glyphosate 0 g/ha (A3 of Table 5), soybean sown 30 days after treatment, EWRC scale 1-9", "value": 1}, {"measurement": "Phytotoxicity Level", "setting": "soybean plants [2]; Nicosulfuron 75 g/ha, Glyphosate 0 g/ha (C3 of Table 5), soybean sown 1 day after treatment, EWRC scale 1-9", "value": 4}, {"measurement": "Phytotoxicity Level", "setting": "soybean plants [2]; Nicosulfuron 75 g/ha, Glyphosate 0 g/ha (C3 of Table 5), soybean sown 7 days after treatment, EWRC scale 1-9", "value": 4}, {"measurement": "Phytotoxicity Level", "setting": "soybean plants [2]; Nicosulfuron 75 g/ha, Glyphosate 0 g/ha (C3 of Table 5), soybean sown 14 days after treatment, EWRC scale 1-9", "value": 2}, {"measurement": "Phytotoxicity Level", "setting": "soybean plants [2]; Nicosulfuron 75 g/ha, Glyphosate 0 g/ha (C3 of Table 5), soybean sown 20 days after treatment, EWRC scale 1-9", "value": 1}, {"measurement": "Phytotoxicity Level", "setting": "soybean plants [2]; Nicosulfuron 75 g/ha, Glyphosate 0 g/ha (C3 of Table 5), soybean sown 30 days after treatment, EWRC scale 1-9", "value": 1}, {"measurement": "control of sourgrass plants (in words)", "setting": "[3]", "value": "effective"}]}
